# In the oligonucleotide strings, read from the 5' end, every base follows the letter of its sugar. An asterisk marks phosphorothioate; unmarked linkages are phosphodiester. Other units and linkages are bracketed, terminal groups are in braces. A string of capitals states the bases alone. m = 2'-O-methyl
# How the values were obtained:
# miR-122 = experiment: psiCHECK-miR122 dual luciferase reporter assay in Huh7 cells; format: cell-based, human; settings: for miR-122 inhibitory activity (structure-activity, in words) / miR-122 activation (structure-activity, in words): Huh7, 10 μM; for miR-122 inhibitory activity (structure-activity, in words): relative to parent inhibitor 1 or 2; for miR-122 activation (structure-activity, in words): relative to parent activator 3
# Text: A miRNA small molecule modifier screen for miR-122 was developed based on the psiCHECK-2 (Promega) reporter plasmid (FIG. 9). This construct expresses both Renilla luciferase as well as firefly luciferase, allowing for the normalization of the signal to account for differential cellular viability and variability in transfection efficiency. The miR-122 target sequence was inserted downstream of the Renilla luciferase gene, between the PmeI and SgfI restriction sites. In another aspect of the invention, plasmids expressing luciferase or another reporter gene such as for example, fluorescent reporters (GFP and variants thereof, DsRed, etc.) or beta-galactosidase can be used to screen for small molecule modifiers of miR-122. The mi-122 target sequence may be upstream or downstream of the reporter gene. Multiple miR-122 target sites can also be inserted into or be present in the plasmid.
# The presence of mature miR-122 will lead to a decrease in the Renilla luciferase signal (FIG. 1a). The ability to detect endogenous miR-122 was validated by transfecting the generated psiCHECK-miR122 construct into Huh7 and HeLa cells. After 48 hour incubation, the cells were assayed using a Dual Luciferase Assay Kit (Promega). In another embodiment, the cells can be incubated for about 24-96 hours. The Dual Luciferase Assay Kit provides a means to measure the amount of the luciferases by generating a luminescent signal. Using this assay the luminescence from the firefly luciferase reaction may be quenched while the luminescent reaction of Renilla luciferase can be activated. Other assays and procedures that can determine the amount of the one or more reporter genes or miR-122 expression, activity or function can be used. An example of another assay is Dual-Glo Assay (Promega).
# The psiCHECK-miR122 vector was then employed in a small molecule screen in Huh7 cells to discover modifiers of miR-122 function. Other cells that express miR-122 such as HepG2 and Hep3B can be used in addition to or instead of Huh7 cells. An increase in the relative Renilla luciferase signal indicates a miR-122 inhibitor, while a reduction in the luciferase signal indicates a miR-122 activator. A genus of compounds that may have activity as modifiers of miR122 function are the Diversity Set II (1364 compounds) from the NCI Developmental Therapeutics Program was screened using Huh7 cells containing the psiCHECK-miR122 reporter. Cells were exposed to the small molecules and the relative luciferase signal was measured after 48 hours using a Dual Luciferase Assay Kit (Promega). In another embodiment the cells can be exposed to the small molecules for about 24-96 hours. As explained above, other assays and procedures that can determine the amount of the one or more reporter genes or miR-122 expression, activity or function can be used.
# The analogs were screened for activity using the previously described miR-122 assay. All cells were treated with 10 μM of a compound and experiments were performed in triplicate to ensure statistical validity. The data was normalized to a 1% DMSO control and is reported in relative luciferase units (RLU). The standard deviation was calculated from three independent assays. Some analogs of miR-122 inhibitor compound 1 are:
# Huh7 and HeLa cells were transfected at approximately 60% confluency with either the psiCHECK-Control plasmid (the original psiCHECK-2 plasmid containing no known miRNA binding site) or the psiCHECK-miR122 plasmid (0.5 μg) using X-tremGENE transfection reagent (3:2 reagent/DNA ratio; Roche) in Opti-Mem media (Invitrogen). All transfections were performed in triplicate for statistical analysis. The cells were incubated at 37° C. for 4 hours followed by the replacement of transfection media with standard DMEM growth media. After 48 hours of incubation the media was removed, cells were lysed and assayed with a Dual Luciferase Assay Kit (Promega) using a Wallac VICTOR^3V luminometer with a measurement time of 1 s and a delay time of 2 s. […]
# [1] = tested on: psiCHECK-control vector (no miRNA target sequence); experiment: psiCHECK-control vector luciferase counter-assay in Huh7 cells; format: cell-based, human; settings: Huh7, 10 μM
# Text: (FIG. 3). […] The relative luciferase units were normalized to the corresponding DMSO signals. […] This confirms that compound 2 and the antagomir have similar effects on the reduction of miR-122 function in Huh7 cells.
# Compounds which elicited greater than a 5-fold increase of the relative luciferase units signal compared to the DMSO control were then re-assayed in triplicate to confirm the validity of the hit compound. Upon secondary validation of miR-122 inhibition, identical assays were repeated with the psiCHECK-Control vector to ascertain that the effect is specific to the miR-122 pathway, and not simply affecting the Renilla gene. In order to assess the relative degree of miR-122 inhibition, Huh7 cells were also co-transfected with either the psiCHECK-Control plasmid or the psiCHECK-miR122 plasmid (0.5 μg) and a miR-122 2′-OMe PS antagomir (50 pmol; 5′ […] (SEQ ID NO:4) 3′; IDT DNA)(2) using the X-tremGENE transfection reagent (Roche Applied Science, 4:2 reagent/DNA ratio). The transfection media was replaced with standard DMEM growth media after 4 hours and the cells were incubated for 48 hours prior to analysis with a Dual Luciferase Assay Kit (FIG. 3).
# [2] = tested on: hepatitis C virus (HCV) genotype 1a H77c RNA; experiment: HCV replication in Huh7 cells (HCV RNA by quantitative RT PCR); format: cell-based; settings: Huh7, 10 μM (antagomir transfected), 48 hours
# Method: Aberrantly regulated miR-122 is involved in the development of heptocellular carcinoma (HCC). miR-122 is a cellular component required by hepatitis C virus (HCV) for viral replication. […] Due to the efficient down-regulation of miRNA-122 by the small molecule inhibitors 1 and 2, both compounds were tested for their ability to inhibit HCV replication in Huh7 cells. The pHtat2Neo/QR/KR/FV/SI plasmid (provided by Dr. Stanley Lemon of University of Texas Medical Branch (UTMB)) was used to generate genotype 1a H77c RNA, which was subsequently transfected into Huh7 cells.^16 The cells were then either transfected with a miR-122 antagomir (positive control), or treated with compounds 1 and 2 (10 μM), or DMSO (negative control). After 48 hours, total RNA was isolated and HCV RNA levels were measured by quantitative RT PCR (FIG. 7). In agreement with previous reports, the antagomir reduced HCV RNA levels to 20%.^6 Moreover, the small molecule miR-122 inhibitors 1 and 2 elicited a reduction in viral load to 48% and 47%, respectively.
# The pHtat2Neo/QR/KR/FV/SI plasmid (provided by Dr. Stanley Lemon)^16 was linearized using XbaI (10 units, 50 μL reaction; New England Biolabs), followed by transcription with T7 RNA Polymerase (6 h, 37° C.), and purification on Microcon 10 columns. Huh7 cells were then grown to 60% confluency in a 6 well plate and transfected with 1 μg RNA using X-tremGENE transfection reagent (Roche Applied Science, 3:2 reagent/RNA ratio) in Opti-Mem media (Invitrogen). After a 4 hour incubation at 37° C., the transfection media was removed and replaced with standard growth media (2 mL) supplemented with 10 μM of 1 or 2 (1% DMSO final concentration). All experiments were conducted in triplicate for statistical validation. […] Quantitative RT-PCR was then performed as previously described using the general HCV RT-PCR Primers (5′: […] 3′ (SEQ ID NO:7) and 5′ […] 3′) (SEQ ID NO:8) and GADPH primers (5′ […] 3′ (SEQ ID NO:9) and 5′ […] 3′) (SEQ ID NO:10) as a standard control.
Compound,"miR-122 inhibitory activity (structure-activity, in words) (miR-122)",other results
O=C(NCc1ccc2ccccc2c1)c1ccc(Cl)cc1Cl [1e],virtually complete loss of miR-122 inhibitory activity,–
O=C(NCc1ccc2ccccc2c1)c1ccc(Cl)cc1Cl [1f],virtually complete loss of miR-122 inhibitory activity,–
"O=C(Nc1ccccc1)c1ccc(Cl)cc1Cl [1g, 2,4-Dichloro-N-phenylbenzamide]",complete loss of miR-122 inhibitory activity,–
"Nc1ccc(NC(=O)c2ccc(Cl)cc2Cl)cc1 [1h, N-(4-Aminophenyl)-2,4-dichlorobenzamide]",complete loss of miR-122 inhibitory activity,–
"O=C(Nc1ccc(I)cc1)c1ccc(Cl)cc1Cl [1i, 2,4-Dichloro-N-(4-iodophenyl)benzamide]",complete loss of miR-122 inhibitory activity,–
O=C(NCc1ccc2ccccc2c1)c1ccc(Cl)cc1Cl [1m],substantial loss of activity,–
"O=S(=O)(c1ccc2c(c1)CCCN2)N1CCCc2ccccc21 [2b, 6-(3,4-Dihydroquinolin-1(2H)-ylsulfonyl)-1,2,3,4-tetrahydroquinoline]",loss of activity,–
"O=S(=O)(Nc1ccccc1)c1ccc2c(c1)CCCN2 [2c, N-Phenyl-1,2,3,4-tetrahydroquinoline-6-sulfonamide]",Activity was maintained,"relative luciferase units (RLU) normalized to a DMSO control (miR-122; Huh7, psiCHECK-miR122, 10 μM, mean ± SD of three independent assays): 9.9±3.1 RLU"
"Nc1ccc(NS(=O)(=O)c2ccc3c(c2)CCCN3)cc1 [2d, N-(4-Aminophenyl)-1,2,3,4-tetrahydroquinoline-6-sulfonamide]",lost,–
"CN(C)CCN1C(=O)c2cccc3cccc(c23)C1=O [3a, 2-(2-(Dimethylamino)ethyl)-1H-benzo[de]isoquinoline-1,3(2H)-dione]",–,"miR-122 activation (structure-activity, in words) (miR-122): retention of activity"
"NCCN1C(=O)c2cccc3cc(N)cc(c23)C1=O [3c, 5-Amino-2-(2-aminoethyl)-1H-benzo[de]isoquinoline-1,3(2H)-dione]",–,"miR-122 activation (structure-activity, in words) (miR-122): increasing loss of activity"
"Nc1cc2c3c(cccc3c1)C(=O)N(Cc1ccc3ccccc3c1)C2=O [3g, 5-amino-2-(naphthalen-2-ylmethyl)-1H-benzo[de] isoquinoline-1,3(2H)-dione]",–,"miR-122 activation (structure-activity, in words) (miR-122): complete loss of miR-122 activation"
"antagomir: miR-122 2′-OMe PS antagomir, 5′ ACAAACACCAUUGUCACACUCCA 3′ (SEQ ID NO:4), positive control (mA*mC*mA*mA*mA*mC*mA*mC*mC*mA*mU*mU*mG*mU*mC*mA*mC*mA*mC*mU*mC*mC*mA) [reference compound]",–,"normalized Renilla luciferase signal with psiCHECK-control vector [1]: no statistically significant alteration; Renilla luciferase expression with psiCHECK-miR122 (in words) (miR-122; Huh7, 10 μM (antagomir transfected), normalized to DMSO): significant increase; HCV RNA levels / viral load reduced to [2]: 20%"
